Reference: patent US9695155B2, “Herbicidal substituted pyrimidinyloxy benzene compounds” (E. I. DU PONT DE NEMOURS AND COMPANY, priority 2013, dated 2017)

Columns and labels:
wild oat = assay: Test C postemergence; type: in vivo, Avena fatua
Method in brief: (§1)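 Visual injury score versus untreated controls, 0 = no effect, 100 = complete control, taken 13 to 15 days after treatment in the greenhouse. Pre-emergence pots held loam/sand; post-emergence plants grew in sphagnum peat/vermiculite mix and were sprayed at the 1- to 4-leaf stage.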

corn = assay: Test A preemergence; type: in vivo, Zea mays
Method in brief: (§2)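 Greenhouse pot test, loam/sand soil. Formulation: non-phytotoxic solvent mix plus surfactant. Pre: directed spray onto soil after sowing. Post: plants at 1–2 leaf, 2–10 cm. Rated visually vs untreated controls at ~10 d, 0 (no effect) to 100 (complete control).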

blackgrass [1] = assay: Test C postemergence; type: in vivo, Alopecurus myosuroides
Method in brief: as §1

barnyardgrass [2] = assay: Test A preemergence; type: in vivo, Echinochloa crus-galli
Method in brief: as §2

large (Lg) crabgrass [3] = assay: Test A preemergence; type: in vivo, Digitaria sanguinalis
Method in brief: as §2

wheat, winter = assay: Test C preemergence; type: in vivo, Triticum aestivum; settings: for Wheat plant response rating: preemergence
Method in brief: as §1

Heteranthera limosa = assay: Test B flooded paddy test; type: in vivo; settings: Flood, 250 g ai/ha; 0 to 100 scale where 0 is no effect and 100 is complete control
Method in brief: (§3)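 2-leaf stage plants; pots flooded to 3 cm, compound added to paddy water, depth maintained. Greenhouse 13–15 d. Visual rating vs untreated controls, 0 (no effect) to 100 (complete control); dash = no result.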

blackgrass [4] = assay: Test C preemergence; type: in vivo, Alopecurus myosuroides; settings: for Blackgrass plant response rating: preemergence
Method in brief: as §1

barnyardgrass [5] = assay: Test B flooded paddy test; type: in vivo, Echinochloa crus-galli; settings: Flood, 250 g ai/ha; 0 to 100 scale where 0 is no effect and 100 is complete control
Method in brief: as §3

wheat = assay: Test A postemergence; type: in vivo, Triticum aestivum; settings: 0 to 100 scale where 0 is no effect and 100 is complete control
Method in brief: as §2

johnsongrass = assay: Test C postemergence; type: in vivo, Sorghum halepense
Method in brief: as §1

Italian ryegrass = assay: Test C preemergence; type: in vivo, Lolium multiflorum; settings: for Ryegrass, Italian plant response rating: preemergence
Method in brief: as §1

large (Lg) crabgrass [6] = assay: Test A postemergence; type: in vivo, Digitaria sanguinalis; settings: 0 to 100 scale where 0 is no effect and 100 is complete control
Method in brief: as §2

large (Lg) crabgrass [7] = assay: Test C preemergence; type: in vivo, Digitaria sanguinalis; settings: for Crabgrass, Large plant response rating: preemergence
Method in brief: as §1

morningglory [8] = assay: Test A postemergence; type: in vivo, Ipomoea spp.; settings: 0 to 100 scale where 0 is no effect and 100 is complete control
Method in brief: as §2

morningglory [9] = assay: Test A preemergence; type: in vivo, Ipomoea spp.
Method in brief: as §2

[10] = 16 g ai/ha, postemergence, 0 is no effect, 100 is complete control
[11] = 31 g ai/ha, postemergence, visual rating, scale 0 to 100 (0 no effect, 100 complete control), 13 to 15 days
[12] = 125 g ai/ha, postemergence, visual rating, scale 0 to 100 (0 no effect, 100 complete control)
[13] = Postemergence, 62 g ai/ha, scale 0 to 100 (0 no effect, 100 complete control), 13 to 15 days
[14] = 500 g ai/ha, 0 to 100 scale where 0 is no effect and 100 is complete control
[15] = 16 g ai/ha, scale 0 to 100 (0 no effect, 100 complete control)
[16] = 125 g ai/ha, scale 0 (no effect) to 100 (complete control)
[17] = Preemergence, 62 g ai/ha, scale 0 to 100, 0 no effect, 100 complete control

Q: Which “Plant response rating (0 to 100), Oat, Wild” value (wild oat; [10]) does the source give for N#Cc1cnn(-c2c(Oc3ncc(Cl)cn3)cccc2C(F)F)c1 [Compound 236] here?
A: Its value is 0.

Q: What about the “Oat, Wild plant response rating” value (wild oat; [11]) of the same molecule?
A: The value was 0.

Q: What about the “Plant response rating, Oat, Wild” value (wild oat; [12]) of the same molecule?
A: Its value is 5.

Q: What about the “Plant response rating, Oat, Wild” value (wild oat; [13]) of the same molecule?
A: Its value is 5.

Q: And the “Corn plant response rating (0 to 100 scale)” value (corn; 125 g ai/ha)?
A: Its value is 20.

Q: And the “Corn plant response rating” value (corn; [14])?
A: The value was 90.

Q: What about the “Plant response rating (0 to 100), Blackgrass” value (blackgrass [1]; [10]) of the same molecule?
A: Its value is 0.

Q: What about the “Blackgrass plant response rating” value (blackgrass [1]; [11]) of the same molecule?
A: The value was 5.

Q: What about the “Plant response rating, Blackgrass” value (blackgrass [1]; [12]) of the same molecule?
A: Its value is 20.

Q: What about the “Plant response rating, Blackgrass” value (blackgrass [1]; [13]) of the same molecule?
A: Its value is 5.

Q: And the “Barnyardgrass plant response rating (0 to 100 scale, 0 is no effect, 100 is complete control)” value (barnyardgrass [2]; 125 g ai/ha)?
A: Its value is 100.

Q: And the “Barnyardgrass plant response rating” value (barnyardgrass [2]; [14])?
A: Its value is 100.

Q: What about the “Crabgrass, Large plant response rating (0 to 100 scale)” value (large (Lg) crabgrass [3]; 125 g ai/ha) of the same molecule?
A: Its value is 100.

Q: And the “Crabgrass, Large plant response rating” value (large (Lg) crabgrass [3]; [14])?
A: Its value is 100.

Q: And the “Wheat plant response rating” value (wheat, winter; [15])?
A: The value was 0.

Q: And the “Wheat plant response rating” value (wheat, winter; [16])?
A: Its value is 60.

Q: And the “Plant response rating, Wheat” value (wheat, winter; [17])?
A: Its value is 0.

Q: And the “Plant response rating, Ducksalad” value (Heteranthera limosa)?
A: Its value is 100.

Q: What about the “Blackgrass plant response rating” value (blackgrass [4]; [15]) of the same molecule?
A: Its value is 5.

Q: What about the “Blackgrass plant response rating” value (blackgrass [4]; [16]) of the same molecule?
A: Its value is 90.

Q: And the “Plant response rating, Blackgrass” value (blackgrass [4]; [17])?
A: The value was 90.

Q: What about the “Plant response rating, Barnyardgrass” value (barnyardgrass [5]) of the same molecule?
A: The value was 30.

Q: And the “Wheat plant response rating” value (wheat; 125 g ai/ha)?
A: The value was 50.

Q: What about the “Plant response rating, Wheat” value (wheat; 500 g ai/ha) of the same molecule?
A: Its value is 100.

Q: And the “Plant response rating (0 to 100), Johnsongrass” value (johnsongrass; [10])?
A: Its value is 10.

Q: And the “Johnsongrass plant response rating” value (johnsongrass; [11])?
A: Its value is 25.

Q: And the “Plant response rating, Johnsongrass” value (johnsongrass; [12])?
A: Its value is 20.

Q: What about the “Plant response rating, Johnsongrass” value (johnsongrass; [13]) of the same molecule?
A: Its value is 15.

Q: And the “Ryegrass, Italian plant response rating” value (Italian ryegrass; [15])?
A: The value was 0.

Q: And the “Ryegrass, Italian plant response rating” value (Italian ryegrass; [16])?
A: Its value is 85.

Q: What about the “Plant response rating, Ryegrass, Italian” value (Italian ryegrass; [17]) of the same molecule?
A: Its value is 45.

Q: And the “Crabgrass, Large plant response rating” value (large (Lg) crabgrass [6]; 125 g ai/ha)?
A: Its value is 80.

Q: And the “Plant response rating, Crabgrass, Large” value (large (Lg) crabgrass [6]; 500 g ai/ha)?
A: Its value is 100.

Q: What about the “Crabgrass, Large plant response rating” value (large (Lg) crabgrass [7]; [15]) of the same molecule?
A: Its value is 90.

Q: And the “Crabgrass, Large plant response rating” value (large (Lg) crabgrass [7]; [16])?
A: Its value is 100.

Q: And the “Plant response rating, Crabgrass, Large” value (large (Lg) crabgrass [7]; [17])?
A: Its value is 100.

Q: What about the “Morningglory plant response rating” value (morningglory [8]; 125 g ai/ha) of the same molecule?
A: Its value is 80.

Q: What about the “Plant response rating, Morningglory” value (morningglory [8]; 500 g ai/ha) of the same molecule?
A: The value was 100.

Q: What about the “Morningglory plant response rating (0 to 100 scale)” value (morningglory [9]; 125 g ai/ha) of the same molecule?
A: Its value is 30.

Q: And the “Morningglory plant response rating” value (morningglory [9]; [14])?
A: The value was 100.
